According to PMC12250605, “Recombinant Expression and Characterization of a Novel Type I Baeyer–Villiger Monooxygenase from a Streptomyces Strain Isolated from the Rhizosphere of the Atacama Desert Lupinus oreophilus” (International Journal of Molecular Sciences, 2025):

Test system: T1, MO-G35A
T1 construct: full-length, C-terminal His6 tag kept, codon-optimised gene; pET-28a (cytoplasmic) or pET-22b (pelB, periplasmic), E. coli NiCo21(DE3) or Shuffle T7; 73 kDa
Assay: NADPH consumption at […] nm, sigmoidal fit
Type: biochemical, Streptomyces sp. G35A
Conditions: Tris-HCl pH 7.5, 30 °C (methods) or 35 °C (results), allosteric sigmoidal fit

SMILES | Km (5 mM BHC) [µM] | Km (200 µM NADPH) [µM]
NC(=O)C1=CN([C@@H]2O[C@H](COP(=O)(O)OP(=O)(O)OC[C@H]3O[C@@H](n4cnc5c(N)ncnc54)[C@H](OP(=O)(O)O)[C@@H]3O)[C@@H](O)[C@H]2O)C=CC1 [NADPH] | 23.8 | –
O=C1CC2C=CCC12 (centres unmarked) [BHC, bicyclo [3.2.0] hept-2-en-6-one] | – | 60
